Test results from US8293786B2 (Alltranz Inc., priority 2007, dated 2012).

Columns and labels:
[1] = system: human abdominal skin; test: In vitro human skin permeation and skin disposition, flow-through diffusion cells (Examples 2, 2A, 2B); type: in vitro ADME; conditions: for Flux enhancement: total cannabidiol versus cannabidiol
Description: Flow through diffusion cells were used for the permeation studies. HEPES-buffered Hanks' balanced salts containing 40% PEG 400 with gentamicin or 40% aqueous PEG 400 with gentamicin were used for the receiver compartment. Donor solution was comprised of 90:8:2 PG:H2O:IPM solution or gel formulation. […] Drug accumulation in the skin after a 24, 30 or 42 h diffusion experiment was determined as μmol/g wet tissue weight.
The skin samples used in the following experiments were obtained from abdominal reduction surgery and dermatomed to a thickness of approximately 200 μm. The skin samples used herein were frozen at −20° C. for less than six months.
One (1) L of receiver fluid was prepared by measuring 1 L of nanopure water into a graduated cylinder. 90% of the water was added to an Erlenmeyer flask. Hanks' salts (1 bottle) were added to the water along with 5.96 g of HEPES and 0.35 g of sodium bicarbonate. The pH of the solution was adjusted with 1 N sodium hydroxide solution to pH 7.4. The remaining water was added and the receiver fluid was filtered through a 0.2μ filter (Millipore, Billerica, Mass.). Fifty (50) mg of gentamicin was added to the filtered receiver fluid and 400 mL of the receiver fluid was removed and replaced with 400 mL of PEG 400.
The receiver fluid was prepared by measuring 600 mL of nanopure H2O into a graduated cylinder. The H2O was filtered through a 0.2μ filter (Millipore, Billerica, Mass.). Fifty (50) mg of gentamicin was added to the filtered H2O and 400 mL of PEG 400 was added.
The prodrugs were made up in a solution of 45:4:1 PG:H2O:IPM. For this solution, the appropriate amount of drug was weighed into a glass silanized culture tube and IPM was added, the 50 μL of PG to coat the drug, then an additional 247 μL PG was added and the donor solution was vortexed again. Finally 26 μL of water was added. The gel formulation resulted from the mixing of absolute ethanol, nanopure water, IPM, Carbopol® 980, 0.1 N sodium hydroxide solution and the respective drug.
The gel formulation was comprised of absolute ethanol, nanopure water, IPM, Carbopol® 980, 0.1 sodium hydroxide solution and respective drug. The anhydrous gel was comprised of absolute ethanol, PEG monoethyl ether 550, Klucel® hydroxypropylcellulose, and respective drug.
Dermatomed skin harvested from abdominoplasty, stored at −20° C., was used for the experiments. A PermeGear flow-through (In-Line, Hellertown, Pa.) diffusion cell system was used for the skin permeation studies.
Diffusion cells were kept at 32° C. with a circulating water bath. Human epidermal skin was arranged in the diffusion cell with stratum corneum (upper layer of skin) facing the donor compartment. The permeation area of the skin was 0.95 cm^2. The data was collected from a human skin donor with three diffusion cells per treatment.
The receiver solution was HEPES-buffered Hanks' balanced salts with gentamicin containing 40% PEG 400 at a pH of 7.4 or 40% aqueous PEG 400 and flow rate was adjusted to 0.8 mL/h. Each cell was charged with 0.10 mL of the respective drug formulation (donor solution) or 50 μL of gel formulation which was rubbed into the skin for 15 sec with a Teflon coated rod. The formulation was applied to ensure complete coverage. […]. Diffusion cells were covered with a stopper or cap for the duration of the study.
Samples were collected into scintillation vials in 3 h increments for either 24, 30, or 42 h. All the samples were stored at 4° C. until extracted. An aliquot (0.5 mL) of the diffusion sample was placed into a silanized HPLC vial and 0.5 mL of acetonitrile was added to the sample, capped and vortexed.
At the end of the experiment, the skin tissue was removed from the diffusion cell, rinsed with nanopure water, and blotted dry with a paper towel. The skin was tape stripped twice using book tape (Scotch™, 3M, St. Paul, Minn.) to remove drug formulation adhering to the tissue surface.

[2] = Plasma stability of cannabidiol prodrugs (bioconversion to parent drug); type: in vitro ADME; conditions: for % mono-prodrug at time (h) / % Di-prodrug at time (h): di-prodrug in plasma; for % mono-prodrug at time (h): mono-prodrug formed; for % Prodrug at time (h): mono-prodrug in plasma
Description: An approximated 1 mg/mL stock solution of each prodrug was prepared in 100 μL of ethanol and 900 μL of acetonitrile. Ten (10) μL of stock was spiked into 1 mL of plasma and vortexed. The samples were kept sealed in an amber vial and samples were obtained to analyze for bioconversion to parent drug.

[3] = Table 18, 90:8:2 PG:H2O:IPM donor solution, 40% aqueous PEG 400 receiver fluid, CBD from applied prodrug
[4] = Table 18, 90:8:2 PG:H2O:IPM donor solution, 40% aqueous PEG 400 receiver fluid, as applied compound (CBD or intact prodrug)
[5] = Table 18, 90:8:2 PG:H2O:IPM donor solution, 40% aqueous PEG 400 receiver fluid, mono-prodrug from applied di-prodrug
[6] = Table 18, 90:8:2 PG:H2O:IPM donor solution, 40% aqueous PEG 400 receiver fluid, prodrug applied, as total cannabidiol equivalents
[7] = Table 23, gel formulation, 40% aqueous PEG 400 receiver fluid, as applied compound (CBD or intact prodrug)
[8] = Table 23, gel formulation, 40% aqueous PEG 400 receiver fluid, mono-prodrug (ALL00149) from applied di-prodrug
[9] = Table 23, gel formulation, 40% aqueous PEG 400 receiver fluid, prodrug applied, as total cannabidiol equivalents
[10] = Table 16, 90:8:2 PG:H2O:IPM donor solution, 60/40 Hanks'/PEG 400 receiver fluid, CBD from applied prodrug
[11] = Table 16, 90:8:2 PG:H2O:IPM donor solution, 60/40 Hanks'/PEG 400 receiver fluid, as applied compound (CBD or intact prodrug)
[12] = Table 16, 90:8:2 PG:H2O:IPM donor solution, 60/40 Hanks'/PEG 400 receiver fluid, prodrug applied, as total cannabidiol equivalents

C=C(C)[C@@H]1CCC(C)=C[C@H]1c1c(OC(=O)CO)cc(CCCCC)cc1OC(=O)CO [ALL00147, CBD Diglycolate]
30 h cumulative amt [1, 3]: 8.2 ± 7.0 nmol | 30 h skin conc [1, 3]: 3.9 ± 0.8 µmol/g | Flux [1, 3]: 0.7 ± 0.6 nmol/cm^2/h | Lag time [1, 3]: 16.7 ± 0.7 h | 30 h cumulative amt [1, 4]: 11.7 ± 3.8 nmol | 30 h skin conc [1, 4]: 6.3 ± 5.6 µmol/g | Flux [1, 4]: 0.7 ± 0.01 nmol/cm^2/h | Lag time [1, 4]: 13.0 ± 5.9 h | 30 h cumulative amt [1, 5]: 9.1 ± 0.2 nmol | 30 h skin conc [1, 5]: 7.1 ± 6.3 µmol/g | Flux [1, 5]: 0.6 ± 0.2 nmol/cm^2/h | Lag time [1, 5]: 11.8 ± 5.9 h | 30 h cumulative amt [1, 6]: 29.0 ± 3.4 nmol | 30 h skin conc [1, 6]: 17.3 ± 12.6 µmol/g | Flux [1, 6]: 1.9 ± 0.8 nmol/cm^2/h | Lag time [1, 6]: 13.3 ± 5.0 h | Flux enhancement ([1]; Table 18, 90:8:2 PG:H2O:IPM donor solution, 40% aqueous PEG 400 receiver fluid): 0.24 | 24 h cumulative amt [1, 7]: 0.9 nmol | 24 h skin conc [1, 7]: 0.8 ± 0.7 µmol/g | 24 h cumulative amt [1, 8]: 5.7 nmol | 24 h skin conc [1, 8]: 8.7 ± 6.6 µmol/g | Flux [1, 8]: 0.25 nmol/cm^2/h | 24 h cumulative amt [1, 9]: 12.5 nmol | 24 h skin conc [1, 9]: 9.5 ± 7.3 µmol/g | Flux [1, 9]: 0.58 nmol/cm^2/h | Flux enhancement ([1]; Table 23, gel formulation, 40% aqueous PEG 400 receiver fluid): 2.0 | detected in the skin as ([1]; in donor solution): prodrug, mono-substituted prodrug, ALL00149, and cannabidiol | flux compared to cannabidiol ([1]; in donor solution): did not increase the flux | lag time compared to cannabidiol ([1]; in donor solution): not decreased | permeated through the skin as ([1]; in donor solution): intact prodrug, mono-substituted prodrug (ALL00149), and cannabidiol | total skin concentrations compared to cannabidiol ([1]; in donor solution): not higher | detected in the skin as ([1]; in gel formulation): primarily as mono-prodrug, ALL00149 with a trace amount of ALL00147 | increase of the flux compared to cannabidiol ([1]; in gel formulation): 2 fold | share permeated through the skin as cannabidiol ([1]; in gel formulation): 47.2% | share permeated through the skin as intact di-prodrug ([1]; in gel formulation): 7.2% | share permeated through the skin as mono-prodrug ([1]; in gel formulation): 45.6% | total skin concentrations compared to cannabidiol ([1]; in gel formulation): weren't higher | % mono-prodrug at time (h) ([2]; Table 20, 0.5 h): 0% | % mono-prodrug at time (h) ([2]; Table 20, 2 h): 0% | % mono-prodrug at time (h) ([2]; Table 20, 22 h): 0% | % mono-prodrug at time (h) ([2]; Table 20, 24 h): 0% | % Di-prodrug at time (h) ([2]; Table 20, 0 h): 100% | % Di-prodrug at time (h) ([2]; Table 20, 0.5 h): 55% | % Di-prodrug at time (h) ([2]; Table 20, 2 h): 32% | % Di-prodrug at time (h) ([2]; Table 20, 22 h): 13% | % Di-prodrug at time (h) ([2]; Table 20, 24 h): 12% | % mono-prodrug at time (h) ([2]; Table 24, 0 h): 3% | % mono-prodrug at time (h) ([2]; Table 24, 0.5 h): 37% | % mono-prodrug at time (h) ([2]; Table 24, 1 h): 10% | % mono-prodrug at time (h) ([2]; Table 24, 2 h): 2% | % Di-prodrug at time (h) ([2]; Table 24, 0 h): 97% | % Di-prodrug at time (h) ([2]; Table 24, 0.5 h): 0% | % Di-prodrug at time (h) ([2]; Table 24, 1 h): 0% | % Di-prodrug at time (h) ([2]; Table 24, 2 h): 0%

C=C(C)[C@@H]1CCC(C)=C[C@H]1c1c(OC(=O)OC)cc(CCCCC)cc1OC(=O)OC [ALL00143, CBD Bis(Methyl Carbonate)]
30 h skin conc ([1]; Table 17, 90:8:2 PG:H2O:IPM donor solution, 40% aqueous PEG 400 receiver fluid, CBD from applied prodrug): 0.5 ± 0.0 µmol/g | 30 h skin conc ([1]; Table 17, 90:8:2 PG:H2O:IPM donor solution, 40% aqueous PEG 400 receiver fluid, as applied compound (CBD or intact prodrug)): 5.8 ± 3.0 µmol/g | 30 h skin conc ([1]; Table 17, 90:8:2 PG:H2O:IPM donor solution, 40% aqueous PEG 400 receiver fluid, prodrug applied, as total cannabidiol equivalents): 6.0 ± 3.2 µmol/g | detected in the skin as ([1]; in donor solution): prodrug and trace amounts of cannabidiol | permeated through the skin as ([1]; in donor solution): did not permeate through the skin or was below detection in the receiver samples | total skin concentrations compared to cannabidiol ([1]; in donor solution): not higher | % mono-prodrug at time (h) ([2]; Table 20, 1 h): 0% | % mono-prodrug at time (h) ([2]; Table 20, 3 h): 0% | % mono-prodrug at time (h) ([2]; Table 20, 24 h): 0% | % Di-prodrug at time (h) ([2]; Table 20, 0 h): 100% | % Di-prodrug at time (h) ([2]; Table 20, 1 h): 82% | % Di-prodrug at time (h) ([2]; Table 20, 3 h): 76% | % Di-prodrug at time (h) ([2]; Table 20, 24 h): 65%

C=C(C)[C@@H]1CCC(C)=C[C@H]1c1c(O)cc(CCCCC)cc1OC(=O)COCCOCCOCCOC [ALL00131, CBD 3,6,9,12-tetraoxatridecanoate]
42 h cumulative amt [1, 10]: 15.4 ± 2.0 nmol | Flux [1, 10]: 0.6 ± 0.1 nmol/cm^2/h | Lag time [1, 10]: 9.6 ± 3.0 h | 42 h cumulative amt [1, 11]: 54.9 ± 22.1 nmol | 42 h skin conc [1, 11]: 12.5 ± 5.5 µmol/g | Flux [1, 11]: 2.3 ± 0.8 nmol/cm^2/h | Lag time [1, 11]: 13.7 ± 1.9 h | 42 h cumulative amt [1, 12]: 70.3 ± 20.4 nmol | 42 h skin conc [1, 12]: 12.5 ± 5.5 µmol/g | Flux [1, 12]: 2.8 ± 0.7 nmol/cm^2/h | Lag time [1, 12]: 12.9 ± 1.6 h | Flux enhancement ([1]; Table 16, 90:8:2 PG:H2O:IPM donor solution, 60/40 Hanks'/PEG 400 receiver fluid): 0.43 | detected in the skin as ([1]; in donor solution): only as prodrug | flux compared to cannabidiol ([1]; in donor solution): did not increase the flux | lag time compared to cannabidiol ([1]; in donor solution): similar | permeated through the skin as ([1]; in donor solution): intact prodrug and cannabidiol | total skin concentrations compared to cannabidiol ([1]; in donor solution): not higher | % Prodrug at time (h) ([2]; Table 20, 0 h): 100% | % Prodrug at time (h) ([2]; Table 20, 1 h): 64% | % Prodrug at time (h) ([2]; Table 20, 2 h): 42% | % Prodrug at time (h) ([2]; Table 20, 4 h): 24% | % Prodrug at time (h) ([2]; Table 20, 6 h): 14% | % Prodrug at time (h) ([2]; Table 20, 24 h): 14%
